Measurements published in publication PMC10803289, “Transport and inhibition mechanism of the human SGLT2–MAP17 glucose transporter” (Nature Structural & Molecular Biology, 2023).
Residue numbers refer to the chain shown, from its start. Values joined by “and” are separate entries in the source; they are usually repeats but may differ in a detail not shown here. Equal values may be shown once.

Key:
[1] = target: T1, wild-type hSGLT2 (membrane fraction of hSGLT2 and MAP17 expressing cells) (Homo sapiens, UniProt P31639); assay: SGLT2 inhibitor-binding assay via affinity selection–mass spectrometry, crude membrane, WT
T1 construct: expressed in transfected cells; host or cells: Expi293 cells, crude membrane fraction
T1 sequence (P31639 1-672): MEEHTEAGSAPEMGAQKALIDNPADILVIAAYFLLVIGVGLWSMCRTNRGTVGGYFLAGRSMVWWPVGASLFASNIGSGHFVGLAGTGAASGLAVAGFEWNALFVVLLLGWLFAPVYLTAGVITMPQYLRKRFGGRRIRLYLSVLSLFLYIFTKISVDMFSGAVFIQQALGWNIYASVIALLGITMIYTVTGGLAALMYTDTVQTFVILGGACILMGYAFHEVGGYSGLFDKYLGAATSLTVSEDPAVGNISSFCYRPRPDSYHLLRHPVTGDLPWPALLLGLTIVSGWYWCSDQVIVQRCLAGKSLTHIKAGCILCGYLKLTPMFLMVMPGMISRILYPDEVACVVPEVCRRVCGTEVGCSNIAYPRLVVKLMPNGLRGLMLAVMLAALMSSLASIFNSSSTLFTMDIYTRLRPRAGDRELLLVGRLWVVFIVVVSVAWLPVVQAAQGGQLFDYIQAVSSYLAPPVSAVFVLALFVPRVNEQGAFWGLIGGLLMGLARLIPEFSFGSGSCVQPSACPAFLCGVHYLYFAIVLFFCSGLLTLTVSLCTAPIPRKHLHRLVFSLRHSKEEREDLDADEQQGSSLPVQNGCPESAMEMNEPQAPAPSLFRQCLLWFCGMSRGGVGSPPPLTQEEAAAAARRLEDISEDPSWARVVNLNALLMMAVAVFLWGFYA
T1 sequence (Q13113 1-114 partner): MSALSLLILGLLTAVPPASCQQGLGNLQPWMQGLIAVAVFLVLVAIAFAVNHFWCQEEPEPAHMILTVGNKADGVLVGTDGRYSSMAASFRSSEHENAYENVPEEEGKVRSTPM
Procedure: (§1) To examine the inhibition of binding to the crude membrane, mammalian Expi293 cells were co-transfected with the hMAP17 and hSGLT2 plasmids, as described. The cells were collected and disrupted by sonication in a hypotonic buffer (50 mM HEPES–NaOH (pH 7.5), 10 mM KCl and protease inhibitor cocktail) or Na^+-free hypotonic buffer (50 mM Tris–HCl (pH 7.5), 10 mM KCl and protease inhibitor cocktail). The cell debris were removed by centrifugation (2,000g, 5 min, 4 °C). The membrane fraction was collected by ultracentrifugation (112,000g, 30 min, 4 °C) and stored at −80 °C before use. The crude membrane (250 μg per sample) was incubated with SGLT2 inhibitor in an assay buffer (100 mM NaCl and 10 mM HEPES/Tris, pH 7.4) or Na^+-free assay buffer (100 mM choline chloride and 10 mM HEPES/Tris, pH 7.4) at room temperature for 2 h. Reactions were terminated by filtration through a GF/C filter plate (Corning) presoaked in assay buffer containing 0.1% bovine serum albumin. The sample in the filter plate was washed three times with the assay buffer and eluted with acetonitrile: water (80:20, v/v). The extract solution from the filter plate was diluted with water containing candesartan as an internal standard, and the SGLT2 inhibitor concentration was quantified via LC–MS/MS.
(§2) Nonspecific binding was measured using the crude membrane of nontransfected Expi293 cells. Specific binding was calculated by subtracting nonspecific binding from the binding of hSGLT2-expressing cells. Specific binding was normalized to hSGLT2 protein expression levels, measured via FSEC. The equilibrium dissociation constant (Kd) and maximum number of binding sites (Bmax) were calculated via nonlinear regression in GraphPad Prism 8.4.3. The specific binding of the hSGLT2 mutants was normalized to the Bmax of WT hSGLT2.
(§3) The concentrations of the extract solution from the filter plate and of the cell lysate were quantified using a tandem mass spectrometry QTRAP6500 System (SCIEX) coupled with an ACQUITY UPLC system (Waters) using the internal standard method. Mobile phases A and B used 10 mM of ammonium bicarbonate and acetonitrile, respectively.

[2] = system: nontransfected Expi293 cells (Mock); assay: Nonspecific binding to crude membrane of nontransfected cells (Mock); set-up: species or system human; details: Mock
Procedure: as §1, §2, §3

SGLT1 and SGLT2 = details: cited from earlier work; for subtype specificity of inhibition (SGLT1 vs SGLT2): in words
hSGLT2 S74A = target: T2, hSGLT2 S74A (Homo sapiens, UniProt P31639, S74A); assay type: binding; details: S74A mutant
T2 construct: expressed in transfected cells; host or cells: Expi293 cells, crude membrane fraction
T2 sequence (P31639 whole entry S74A, one chain of several): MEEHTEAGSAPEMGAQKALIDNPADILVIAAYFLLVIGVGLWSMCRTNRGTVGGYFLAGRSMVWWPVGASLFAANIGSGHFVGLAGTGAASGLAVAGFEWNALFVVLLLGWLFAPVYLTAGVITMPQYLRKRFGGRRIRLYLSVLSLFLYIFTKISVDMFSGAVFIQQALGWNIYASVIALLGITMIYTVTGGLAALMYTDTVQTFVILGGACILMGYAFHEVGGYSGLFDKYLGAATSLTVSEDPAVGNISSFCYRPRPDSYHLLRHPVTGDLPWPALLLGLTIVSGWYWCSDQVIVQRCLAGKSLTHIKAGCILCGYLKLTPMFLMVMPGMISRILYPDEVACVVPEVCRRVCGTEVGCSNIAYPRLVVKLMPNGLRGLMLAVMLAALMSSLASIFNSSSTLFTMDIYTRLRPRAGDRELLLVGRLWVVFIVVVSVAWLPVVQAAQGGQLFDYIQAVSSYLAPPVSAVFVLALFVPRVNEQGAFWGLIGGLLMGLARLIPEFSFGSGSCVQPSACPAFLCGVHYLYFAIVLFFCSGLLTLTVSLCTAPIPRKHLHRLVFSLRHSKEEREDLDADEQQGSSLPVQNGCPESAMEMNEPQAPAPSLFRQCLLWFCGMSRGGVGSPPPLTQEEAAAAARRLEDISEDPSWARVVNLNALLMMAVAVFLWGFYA
Source text: (§4) hSGLT2 complementary DNA and human MAP17 cDNA were synthesized and codon-optimized for expression in human cell lines. Both cDNAs were cloned into the pcDNA3.4 vector. The hSGLT2 sequence was fused with an N-terminal signal sequence from human trypsinogen 1, a His10 tag, and sfGFP, followed by a human rhinovirus 3C protease (HRV3C protease) recognition site. Point mutations were introduced into this construct using site-directed mutagenesis. These plasmids were utilized for all experimental procedures conducted in this study.
To examine the inhibition of binding to the crude membrane, mammalian Expi293 cells were co-transfected with the hMAP17 and hSGLT2 plasmids, as described. The cells were collected and disrupted by sonication in a hypotonic buffer (50 mM HEPES–NaOH (pH 7.5), 10 mM KCl and protease inhibitor cocktail) or Na^+-free hypotonic buffer (50 mM Tris–HCl (pH 7.5), 10 mM KCl and protease inhibitor cocktail). The cell debris were removed by centrifugation (2,000g, 5 min, 4 °C). The membrane fraction was collected by ultracentrifugation (112,000g, 30 min, 4 °C) and stored at −80 °C before use. […] The extract solution from the filter plate was diluted with water containing candesartan as an internal standard, and the SGLT2 inhibitor concentration was quantified via LC–MS/MS.
as §2, with “The specific binding of the hSGLT2 mutants was normalized to the Bmax of WT hSGLT2.” left out
The concentrations of the extract solution from the filter plate and of the cell lysate were quantified using a tandem mass spectrometry QTRAP6500 System (SCIEX) coupled with an ACQUITY UPLC system (Waters) using the internal standard method. […]

hSGLT2 D201A = target: T3, hSGLT2 D201A (Homo sapiens, UniProt P31639, D201A); assay: SGLT2 inhibitor-binding assay (AS-MS), crude membrane, D201A mutant; set-up: expressed in transfected cells; host or cells: Expi293 cells, crude membrane fraction; details: D201A mutant
T3 sequence (P31639 1-672 D201A): T1 sequence (P31639 1-672) with D201A
T3 sequence (Q13113 1-114 partner): T1 sequence (Q13113 1-114 partner)
Source text: as §4
To examine the inhibition of binding to the crude membrane, mammalian Expi293 cells were co-transfected with the hMAP17 and hSGLT2 plasmids, as described. […] The extract solution from the filter plate was diluted with water containing candesartan as an internal standard, and the SGLT2 inhibitor concentration was quantified via LC–MS/MS.
as §2, with “The specific binding of the hSGLT2 mutants was normalized to the Bmax of WT hSGLT2.” left out

SGLT2 = system: SGLT2; set-up: method as in Hummel et al., Am. J. Physiol., Cell Physiol., 2011; details: authors' rebuttal in peer review file; ref Hummel et al., Am. J. Physiol., Cell Physiol., 2011; cited from earlier work
SGLT1 T395A = system: SGLT1 T395A; set-up: method as in PMID 30532032; details: replacement of T395 with Ala at the Na3 site; cited from earlier work
hSGLT2 V95I = system: hSGLT2 V95I; set-up: method as in PMID 34880493; details: cited from earlier work

For `OC[C@H]1O[C@@H](n2cc(Cc3ccc(C4CC4)cc3)c3c(F)cccc32)[C@H](O)[C@@H](O)[C@@H]1O` [TA-1887], the “Binding (% of hSGLT2)” value ([1]; 10 nM TA-1887) was 96.8051 % of hSGLT2 and 101.597 % of hSGLT2, the Bmax ([1]; Na(+), mean ± SEM n=3) was 4.67 ± 0.49 pmol/mg-protein and the Kd ([1]; Na(+), mean ± SEM n=3) was 115 ± 28 nM. For the same compound, the Bmax ([1]; Na(-), mean ± SEM n=3) was 0.705 ± 0.155 pmol/mg-protein, the Kd ([1]; Na(-), mean ± SEM n=3) was 86.4 ± 50 nM and the “Bmax in the absence versus the presence of Na+ (in words)” value ([1]; absence vs presence of Na+) was “partially lower”. For the same compound, the “Binding (% of hSGLT2)” value ([2]; 10 nM TA-1887) was 13.0351 % of hSGLT2 and 13.9457 % of hSGLT2 and 14.6645 % of hSGLT2 and the “subtype specificity of inhibition (SGLT1 vs SGLT2)” value (SGLT1 and SGLT2) was “SGLT2-specific inhibition”.
For `CS[C@H]1O[C@@H](c2ccc(C)c(Cc3ccc(CCCC(=O)NC(C)(C)C(=O)NCCN(C)C)cc3)c2)[C@H](O)[C@@H](O)[C@@H]1O` [LX-2761], the “subtype specificity of inhibition (SGLT1 vs SGLT2)” value (SGLT1 and SGLT2) is listed as “dual inhibitors”.
With `O=C(CCc1ccc(O)cc1)c1c(O)cc(O)cc1O` [Phloretin] the “phloretin binding (in words)” value ([1]; WT) was “binds as effectively as phlorizin”, the Bmax ([1]; phloretin, WT, mean ± SEM n=4) was 51.7 ± 3.46 pmol/mg-protein and the Kd ([1]; phloretin, WT, mean ± SEM n=4) was 12000 ± 1900 nM. The “phloretin binding (in words)” value (hSGLT2 S74A) was “not” and the “phloretin binding (in words)” value (hSGLT2 D201A) was “not”.
For `OC[C@H]1OC(O)[C@H](O)[C@@H](O)[C@@H]1O` (stereo partly shown) [glucose], the Michaelis constant (SGLT2) is given as 5 mM and the “reduction in glucose affinity” value (SGLT1 T395A) is given as “more than 30 fold”.
In the case of `CCOc1ccc(Cc2cc([C@@H]3O[C@H](SC)[C@@H](O)[C@H](O)[C@H]3O)ccc2Cl)cc1` [Sotagliflozin], the “Binding (% of hSGLT2)” value ([1]; 50 nM sotagliflozin) is given as 96.1006 % of hSGLT2 and 97.9874 % of hSGLT2 and 105.912 % of hSGLT2, the “Binding (% of hSGLT2)” value ([2]; 50 nM sotagliflozin) is given as 19.1195 % of hSGLT2 and 17.8616 % of hSGLT2 and 17.9874 % of hSGLT2 and the “subtype specificity of inhibition (SGLT1 vs SGLT2)” value (SGLT1 and SGLT2) is given as “dual inhibitors”.
In the case of `OC[C@H]1O[C@@H](c2ccc(Cl)c(Cc3ccc(O[C@H]4CCOC4)cc3)c2)[C@H](O)[C@@H](O)[C@@H]1O` [empagliflozin], the “subtype specificity of inhibition (SGLT1 vs SGLT2)” value (SGLT1 and SGLT2) is listed as “SGLT2-specific inhibition” and the “effect of V95I on inhibitory activity” value (hSGLT2 V95I) is listed as “reduces the inhibitory activity”.
In the case of `CCOc1ccc(Cc2cc([C@@H]3O[C@H](CO)[C@@H](O)[C@H](O)[C@H]3O)ccc2Cl)cc1` [Dapagliflozin], the “Binding (% of hSGLT2)” value ([1]; 10 nM dapagliflozin) is listed as 83.4507 % of hSGLT2 and 95.0704 % of hSGLT2 and 121.479 % of hSGLT2, the “Binding (% of hSGLT2)” value ([2]; 10 nM dapagliflozin) is listed as 2.53 % of hSGLT2 and 3.518 % of hSGLT2 and 3.481 % of hSGLT2 and the “fold difference in inhibition between SGLT1 and SGLT2” value (SGLT1 and SGLT2) is listed as “more than 1,000 fold”. For the same compound, the “subtype specificity of inhibition (SGLT1 vs SGLT2)” value (SGLT1 and SGLT2) was “SGLT2-specific inhibition”.
